Test results taken from patent publication US6136347A, “Flavor-masked pharmaceutical compositions” (Bayer Aktiengesellschaft, priority 1992, dated 2000).
Where a name gives a salt, the structure may show the parent alone.

Experiment: in vitro release (dissolution) of active ingredient from microcapsules in strongly acidic (pH 1) and weakly acidic (pH 4.5) medium
Type: physicochemical
Settings: for release of active ingredient from microcapsules (in words): strongly acidic and weakly acidic medium (pH 1 and 4.5)
From the text: FIG. 1 is a graph depicting percent release as a function of time of an active ingredient from microcapsules prepared by spray solidification in carnauba wax.
FIGS. 2a and 2b are two graphs depicting percent release as a function of time of an active ingredient in, respectively, the hydrate and anhydrate forms.
FIGS. 3a and 3b are two graphs depicting percent release as a function of time of an active ingredient in, respectively, the hydrate and anhydrate forms.
FIGS. 4a and 4b are two graphs depicting percent release as a function of time of an active ingredient in, respectively, the hydrate and anhydrate forms.
FIGS. 5a and 5b are two graphs depicting percent release as a function of time of an active ingredient in, respectively, the hydrate and anhydrate forms.

SMILES | release of active ingredient from microcapsules (in words) | release of active ingredient from wax-embedded microcapsules (in words) (embedded by method of EP-A-273,890 (carnauba wax, beeswax, ethylcellulose), FIG. 1, spray solidification in carnauba wax) | release of active ingredient from microcapsules (in words) (listed as ciprofloxacin betaine)
O=C(O)c1cn(C2CC2)c2cc(N3CCNCC3)c(F)cc2c1=O [ciprofloxacin HCl] | delayed |  | 
O=C(O)c1cn(C2CC2)c2cc(N3CCNCC3)c(F)cc2c1=O [ciprofloxacin] |  | does not lead, however, to the required rapid release of active ingredient | a rapid release of active ingredient is guaranteed
